From patent publication US20220347306A1, “SELECTIVE DELIVERY OF THERAPEUTIC AND IMAGING AGENTS” (priority 2018, published 2022)

Legend:
[1] = Body weight (tolerability and toxicity) in human HT1080 fibrosarcoma xenograft model; conditions: 1 mg/kg of the cytotoxic agent component, IV on days 0 and 3
Protocol: (§1) Female athymic nude mice (8-10 weeks old) purchased from Charles River (Wilmington, 01887, MA) were used after 4-7 day of acclimatization period. […] Human fibrosarcoma tumor cells from ATCC (CCL-121™) were grown using standard cell culture techniques. Tumor cells (1×10^8 tumor cells/mL) were suspended in DPBS/Matrigel™ (1:1 vol) and implanted subcutaneously (50 μL tumor cell suspension/mouse) into the upper mammary fat pad or right flank of mice with individual identification number (ear tag). Four to seven days later when the average tumor volume was about 50-100 mm^3, mice were randomized into different experimental groups based on identical averaged (Mean±SEM) tumor volume and dosed with (i) vehicle and (ii) different doses of test compounds. For each involved tumor-bearing mouse, the tumor volume (mm^3) was measured using a caliper and calculated as follows: tumor volume=width^2×length/2. Test compounds were administered intravenously (tail vein) twice (two administrations 3 days apart) in conscious restrained tumor-bearing mice throughout the study. Individual tumor volume, body weight as well as clinical signs were recorded during the study. Each study was terminated on day 12 post-dosing initiation. […] For each experimental group and study day, the tumor volumes from all involved mice were averaged and expressed as Mean±SEM. […]

[2] = tested on: HT1080 fibrosarcoma cells; test: Cancer cell viability assay using human HT1080 fibrosarcoma cells; type: cell-based; conditions: four days incubation, reduction of viable cells, SDM as such
Protocol: Method: Plate cells one day prior to start of assay in 96 well black with clear bottom plates (Corning #3603), 2×10^4 cells per well in 100 μL of standard growth media (according to ATCC). Grow cells to 90% confluency.
Before start of assay rinse cells IX with DPBS. Add compounds in a 3-fold serial dilution in triplicate (range e.g. 8.1 μM-3.7 nM), 100 μL per well in standard growth media.
Incubate four days then assay cell viability as described below. Remove media and rinse IX with DPBS, then add 100 μL per well 10% Prestoblue Cell viability reagent (Thermo Fisher Scientific #A13261) in complete media. Return to incubator for two hours then read plate on SpectraMax M2e, bottom read excitation 555 emission 585 cut-off 570 which measures number of live cells. […] In most cases, SDMs were also tested in activated form by pre-treatment with protease that activates the compound. […] In Table 9 this is represented as ACT SDM-200.

[3] = tested on: HT1080 human fibrosarcoma subcutaneous tumor xenograft; test: Human fibrosarcoma tumor xenograft therapeutic model, tumor growth; type: in vivo, athymic nude mice; conditions: dosed at 0.6 to 3.0 mg/kg of cytotoxic payload component, intravenously twice 3 days apart, evaluated day 9
Protocol: as §1

Compound	Tolerability (FIG. 3B) [1]	Weight loss (body weight normalized to day 1, FIG. 3B) [1] [%]	EC50 [2] [nM]	Efficacy (percent tumor growth inhibition versus vehicle) [3]
[2H]C(=O)OCc1ccc(NC(=O)[C@H](CCCNC(N)=O)NC(=O)[C@@H](NC(=O)CCCCCN2C(=O)C=CC2=O)C(C)C)cc1 [SDM-155]	not tolerated	> 20	–	–
CC[C@H](C)C([C@@H](CC(=O)N1CCCC1[C@H](OC)[C@@H](C)C(=O)N[C@@H](Cc1ccccc1)C(=O)O)OC)N(C)C(=O)[C@@H](NC(=O)[C@H](C(C)C)N(C)C(=O)CNC(=O)[C@H](CCCNC(N)=O)NC(=O)[C@@H](NC(=O)[C@H](Cc1ccc(/C(C)=N\OCCCCCC(=O)N[C@@H](CC(=O)O)C(=O)NC(CC2CCCCC2)C(=O)NC(Cc2ccccc2)C(=O)N[C@H](CO)C(=O)N[C@H](CCCNC(N)N)C(=O)N[C@@H](Cc2ccc(O)cc2)C(=O)N[C@@H](CC(C)C)C(=O)N[C@@H](Cc2c[nH]c3ccccc23)C(=O)N[C@@H](CO)C(N)=O)cc1)NC(=O)CCCCCN1C(=O)C=CC1=O)C(C)C)C(C)C (some centres unmarked) [SDM-185]	–	–	< 300	Medium (Medium: ≥29% inhibition to < 80% inhibition)
[2H]CC(NC(=O)C(CCCNC(=N)N)NC(=O)[C@H](CCCNC(=N)N)NC(=O)[C@@H](CCCNC(=N)N)NC(=O)[C@H](CCCNC(=N)N)NC(=O)[C@@H](CCCNC(=N)N)NC(=O)[C@H](CCCNC(=N)N)NC(=O)[C@@H](CCCNC(=N)N)NC(=O)[C@H](CCCNC(=N)N)NC(=O)C(CO)NC(=O)[C@H](CCCNC(=N)N)NC(=O)[C@H](Cc1c[nH]c2ccccc12)NC(=O)C(CC(C)C)NC(=O)C(C)NC(=O)[C@H](CC(C)C)NC(=O)[C@@H]1CCCN1C(=O)[C@H](CCCNC(=N)N)NC(=O)COCCNC(=O)C(Cc1ccc(C(C)=O)cc1)NC(=O)[C@@H](CCC(=O)O)NC(=O)[C@@H](CCC(=O)O)NC(=O)[C@@H](CCC(=O)O)NC(=O)[C@@H](CCC(=O)O)NC(=O)[C@@H](CCC(=O)O)NC(=O)CCN1C(=O)C=CC1=O)C(N)=O (some centres unmarked) [SDM-173]	–	–	–	High (High: ≥80% inhibition)
